Consider 1 molecule from patent US5804601A, “Aromatic hydroxamic acid compounds, their production and use” (Takeda Chemical Industries, Ltd., priority 1995, dated 1998).

The structures appear in SMILES notation.

Assay [1] deals with apomorphine-induced circling in rats pretreated with LPS infused into the unilateral striatum. Nature of the assay: Inhibitory effect on the apomorphine-induced circling in rats pretreated with LPS infused into the unilateral striatum. The format is in vivo, rat. The following applies: for Number of ipsilateral circlings (mean ± S.E.): 3 times, LPS 5 μg, apomorphine 1 mg/kg s.c., 30-minute period, n=4. How it is done:
Inhibitory effect on the apomorphine-induced circling in rats pretreated with LPS infused into the unilateral striatum Male Wistar rats (8-9 weeks old) weighing 250-280 g at the operation for LPS infusion were submitted to the experiment. Throughout the experimental period, the animals were group-fed in a vivarium controlled at 24±1° C. and 55±1% R.H., with a light-dark cycle of 12 hr (7:00-19:00 ON) and free access to food (Clea Japan, Inc., CE-2 pellets) and water (tap water). Under pentobarbital (50 mg/kg, i.p.) anesthesia, the rat's head was immobilized in David Kopf's brain stereotaxic apparatus for small animal use and with reference to Pellegrino & Cushman's brain atlas, a 30 G stainless steel needle was indwelled in the unilateral striate body (A8.2, L2.8, H4.3). The infusion amount of LPS was set at 5 μg. LPS was dissolved in 1 μl of phosphate-buffered saline (PBS, pH 7.2) and the solution was infused gradually at a speed of 0.2 μl/min. The infusion needle was kept in position till 3 minutes following infusion and withdrawn only after sufficient diffusion of the drug solution had taken place. After 7-8 days postoperatively, 1 mg/kg of apomorphine was administered subcutaneously and the number of induced circling behavior during a 30-minute period immediately following administration were determined with an automatic counter. Compound A was suspended in 5% aqueous gum arabic solution and the suspension was administered either orally or intraperitoneally at a dose rate of 0.2 ml per 100 g rat body weight. This administration was carried out 3 times, namely 30 minutes before infusion of 5 μg LPS and 3 and 24 hours after the infusion. As a control, physiological saline solution alone was administered intraperitoneally.

Assay [2] concerns NO (nitric oxide) production. Kind of assay: Inhibitory effect on LSP-induced NO (nitric oxide) production in a rat mixed cerebral cell culture system. It is filed as cell-based. The following applies: 120 h, LSP 5 μg/ml, 5 days, combined NO3^- and NO2^- in culture supernatant, read-out: inhibition concentration (IC50) against LSP-induced NO production. On the procedure: Inhibitory effect on LSP-induced NO (nitric oxide) production in a rat mixed cerebral cell culture system
(1) Rat mixed cerebral cell culture
Rat mixed cerebral cell cultures were prepared by the procedure described in Experimental Example 1.
1. Twenty (20) days after initiation of rat mixed cerebral cell culture, the medium was removed from each well of the 96-well microtiter plate and, instead, 125 μl/well of D-MEM/2% FCS containing 5 μg/ml (final concentration) of LSP (Difco, E. coli 011: B4, Bacto) and a suitable dilution of the test compound was added. As the test sample, a stock DMSO solution of 10^-2 M concentration was prepared and diluted with D-MEM/2% FCS.
2. After a further 5 days of cell culture, the combined amount of NO3^- and NO2^- in the culture supernatant was determined with the NO3^- NO2^- Assay Kit (Cayman Chemical, Catalog No. 780001, U.S.A.). The assays were carried out in accordance with the accompanying protocol.
The IC50 values were determined from a plot of the concentrations of the test compound which caused a 50% decrease in the combined amount of […] and NO3^- in the culture supernatant as compared with the well to which LSP alone had been added in a final concentration of 5 μg/ml without addition of compound A.

Assay [3] deals with TNFα. Nature of the assay: LPS-induced TNFα production in the rat mixed cerebral cell culture system (ELISA). It is filed as cell-based. As to conditions: LPS 10 μg/ml, 24 hours. How it is done: Rat mixed cerebral cell cultures on day 15 after starting cell cultures were used. After removal of the medium, LPS (E. coli 011: B4, Bacto) (Difco Laboratories), 10 μg/ml, and Compound A, 10^-6 or 10^-7 M, were simultaneously added and the final volume was adjusted to 100 μl. After 24 hours of incubation at 37° C., the culture supernatant was collected as a sample for ELISA. The assay for determining TNFα amount was made using Mouse TNFα ELISA Kit (Genzyme) in accordance with its assay protocol.

Assay [4] deals with rat mixed cerebral cell culture. Nature of the assay: Neutralizing effect on LPS-induced cytotoxicity in a rat mixed cerebral cell culture system (LIC assay), MTT method. It is filed as cell-based. As to conditions: concentration giving a recovery rate of 50%, usually 4-5 days incubation, read-out: ED50 (the source's name). How it is done: Neutralizing effect on lipopolysaccharide (LPS)--induced cytotoxicity in a rat mixed cerebral cell culture system (LIC assay)
LPS, a substance known to activate glial cells (astrocytes, microglia), was added to a rat mixed cerebral cell culture system and the compounds which would neutralize the cytotoxicity induced by LPS were screened by the following method.
(1) Neonatal rat mixed cerebral cell culture
From neonatal Crj:CD (SD) rats (1-3 days old, Charles-River Japan, Ltd.), the brains were isolated and placed in ice-cold D-MEM/10% FCS (Dulbecco's cell culture minimal essential medium supplemented with 10% of fetal calf serum, 100 units/ml of penicillin and 100 μg/ml of streptomycin). Then, mixed cerebral cell cultures were carried out in the following steps.
1. The cerebrums were separated from the enucleated brains and the meninges was removed under the stereoscopic microscope.
2. The cerebrums were placed in a nylon-mesh (100-200 μm) bag to filter with the aid of a rubber policeman.
3. Using ice-cold D-MEM/10% FCS, the cells were washed 3 times (1000 rpm, 8 min.). Then, this cell suspension was filtered through a cell strainer (40 μm mesh, Falcon 2340) and the number of viable cells was counted by the trypan blue method.
4. The cells, were seeded in wells of a 96-well microtiter plate (Nunc) at a cell density of 1×10^5 cells/100 μl/well, and started a cell culture at 37° C.
5. One week later, 100 μl/well of D-MEM/10% FCS was added.
6. The plate was further incubated for about 1-2 weeks and the neutralizing activity of the test compound was evaluated by the following method.
(2) Evaluation of neutralizing activity in LPS-induced cytotoxicity
1. Following the rat mixed cerebral cell culture described in (1) (after 2-3 weeks of incubation), the medium was discarded from the respective wells of the 96-well microtiter plate, and 50 μl/well of fresh D-MEM/2% FCS was added.
2. A test sample and LPS (Difco, E. coli 011: B4, Bacto) of a suitable concentration, 25 μl each per well, were respectively added. D-MEM/2% FCS was used as the medium.
As the test sample, each of the compounds shown in Table 32 was dissolved in DMSO at a concentration of 10 ^-2 M and the solution was diluted with D-MEM/2% FCS and submitted for assay.
3. After a suitable period (usually 4-5 days) of incubation, the degree of cytotoxic effect was assessed by the microscopic observation, and MTT method.
(3) MTT [3-(4,5-dimethylthiazol-2-yl)-2,5-diphenyltetra zolium bromide] method
Ten μl of MTT solution (5 mg/ml, Sigma) dissolved in phosphate-buffered saline was added to each well. After 4-6 hours of incubation (37° C., under 10% CO2), 100 μl/well of 0.01N-hydrochloric acid containing 10% SDS was added, whereby the formed formazan was dissolved. After complete dissolution, the absorbance (540-590 nm) was measured for each well.
The ED50 values were determined by calculating the recovery rates by means of the following equation and plotting the concentrations of compounds giving a recovery rate of 50% on graph paper.
Recovery rate (%)=(C-B)×100/(A-B)
[A: the absorbance at 550 nm of the control well to which only the medium had been added
B: the absorbance at 550 nm of the well to which LPS had been added
C: the absorbance at 550 nm of the well to which both LPS and the test compound had been added]

On to `COc1ccc(C(CCCCC(=O)NO)C2=C(C)C(=O)c3ccccc3C2=O)cc1` (stereo not shown) [Compound A, 6-(3-Methyl-1,4-naphthoquinon-2-yl)-6-(4-methoxyphenyl)hexanohydroxamic acid], for which the “Number of ipsilateral circlings (mean ± S.E.)” value in assay [1] (i.p. (3 mg/kg)) worked out at 44 ± 15; in assay [1] (p.o. (30 mg/kg)) it was 65 ± 21. Also, the “LPS-induced injury of the unilateral striatum (in words)” value in assay [1] (rat, in vivo) is “significantly attenuated”. Also, in assay [2], the IC50 is 80 nM. The TNFα in assay [3] (Compound A 10^-6 M) was 230 pg/mL; in assay [3] (Compound A 10^-7 M) it was 790 pg/mL. Also, the EC50 in assay [4] worked out at 20 nM.
